Measured values taken from ChEMBL document CHEMBL3991601, “The target landscape of clinical kinase drugs” (Science, 2017).
Counter-ions that a name gives are not always drawn. Calls of active or inactive are those of the source. For most assays here, no stated cut-off is given here; in the data, actives have a measured Kd and inactives only a lower limit.

Legend:
[1] = molecular target: T1, Structural maintenance of chromosomes protein 1A (Homo sapiens, UniProt Q14683)
T1 sequence (Q14683 whole entry): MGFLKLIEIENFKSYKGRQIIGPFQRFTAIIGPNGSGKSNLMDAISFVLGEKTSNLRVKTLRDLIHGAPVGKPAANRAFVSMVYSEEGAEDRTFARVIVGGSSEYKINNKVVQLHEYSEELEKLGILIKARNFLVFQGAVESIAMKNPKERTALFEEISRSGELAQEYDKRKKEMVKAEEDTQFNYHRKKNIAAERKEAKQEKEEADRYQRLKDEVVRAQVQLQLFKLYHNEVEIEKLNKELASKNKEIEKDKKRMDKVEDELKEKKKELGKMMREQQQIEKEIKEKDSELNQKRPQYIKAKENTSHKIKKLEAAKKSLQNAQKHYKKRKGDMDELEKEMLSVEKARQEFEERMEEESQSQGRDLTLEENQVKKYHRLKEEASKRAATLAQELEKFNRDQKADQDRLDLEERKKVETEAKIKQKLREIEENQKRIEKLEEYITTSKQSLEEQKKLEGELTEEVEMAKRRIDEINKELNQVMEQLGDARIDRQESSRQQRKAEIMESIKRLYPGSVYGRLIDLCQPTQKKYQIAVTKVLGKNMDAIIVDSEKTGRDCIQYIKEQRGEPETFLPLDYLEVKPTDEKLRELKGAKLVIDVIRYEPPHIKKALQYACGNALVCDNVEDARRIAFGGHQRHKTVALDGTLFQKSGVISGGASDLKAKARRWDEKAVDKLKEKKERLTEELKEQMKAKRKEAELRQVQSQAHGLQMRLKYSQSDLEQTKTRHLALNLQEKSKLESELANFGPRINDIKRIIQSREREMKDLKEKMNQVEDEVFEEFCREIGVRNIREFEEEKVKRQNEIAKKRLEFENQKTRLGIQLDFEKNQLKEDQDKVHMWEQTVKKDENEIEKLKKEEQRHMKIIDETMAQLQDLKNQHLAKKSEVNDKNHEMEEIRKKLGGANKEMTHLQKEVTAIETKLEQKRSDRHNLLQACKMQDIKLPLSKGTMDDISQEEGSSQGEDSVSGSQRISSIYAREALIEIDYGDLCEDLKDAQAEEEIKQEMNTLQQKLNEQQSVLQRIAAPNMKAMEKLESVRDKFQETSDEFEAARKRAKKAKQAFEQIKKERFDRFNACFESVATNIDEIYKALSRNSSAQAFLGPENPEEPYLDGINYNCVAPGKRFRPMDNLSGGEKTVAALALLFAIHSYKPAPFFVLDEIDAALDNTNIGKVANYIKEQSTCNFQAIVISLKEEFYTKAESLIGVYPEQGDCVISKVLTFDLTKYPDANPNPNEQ

[2] = molecular target: T2, Serine/threonine-protein kinase 3 (Homo sapiens, UniProt Q13188)
T2 sequence (Q13188 whole entry): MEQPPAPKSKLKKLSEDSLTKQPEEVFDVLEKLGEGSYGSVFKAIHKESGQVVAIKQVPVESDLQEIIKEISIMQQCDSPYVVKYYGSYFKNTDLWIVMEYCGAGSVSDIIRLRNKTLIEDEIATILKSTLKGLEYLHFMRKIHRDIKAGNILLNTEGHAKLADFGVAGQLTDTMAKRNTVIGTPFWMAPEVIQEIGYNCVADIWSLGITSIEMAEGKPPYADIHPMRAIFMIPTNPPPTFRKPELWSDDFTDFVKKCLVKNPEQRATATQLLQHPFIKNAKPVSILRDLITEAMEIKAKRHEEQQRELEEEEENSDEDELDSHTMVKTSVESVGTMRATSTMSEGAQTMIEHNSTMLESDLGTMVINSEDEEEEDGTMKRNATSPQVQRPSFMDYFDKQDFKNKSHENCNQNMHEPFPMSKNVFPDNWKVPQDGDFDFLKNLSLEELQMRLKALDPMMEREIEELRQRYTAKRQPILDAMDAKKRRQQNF

[3] = molecular target: T3, EKC/KEOPS complex subunit TP53RK (Homo sapiens, UniProt Q96S44)
T3 sequence (Q96S44 whole entry): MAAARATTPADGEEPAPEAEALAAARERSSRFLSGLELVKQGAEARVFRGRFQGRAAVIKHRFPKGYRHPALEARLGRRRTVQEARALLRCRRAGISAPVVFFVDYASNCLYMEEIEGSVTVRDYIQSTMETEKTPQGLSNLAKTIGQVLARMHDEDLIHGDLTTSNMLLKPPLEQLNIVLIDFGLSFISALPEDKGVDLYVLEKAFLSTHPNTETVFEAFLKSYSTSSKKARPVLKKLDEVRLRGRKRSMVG

[4] = molecular target: T4, Mitogen-activated protein kinase kinase kinase 2 (Homo sapiens, UniProt Q9Y2U5)
T4 sequence (Q9Y2U5 whole entry): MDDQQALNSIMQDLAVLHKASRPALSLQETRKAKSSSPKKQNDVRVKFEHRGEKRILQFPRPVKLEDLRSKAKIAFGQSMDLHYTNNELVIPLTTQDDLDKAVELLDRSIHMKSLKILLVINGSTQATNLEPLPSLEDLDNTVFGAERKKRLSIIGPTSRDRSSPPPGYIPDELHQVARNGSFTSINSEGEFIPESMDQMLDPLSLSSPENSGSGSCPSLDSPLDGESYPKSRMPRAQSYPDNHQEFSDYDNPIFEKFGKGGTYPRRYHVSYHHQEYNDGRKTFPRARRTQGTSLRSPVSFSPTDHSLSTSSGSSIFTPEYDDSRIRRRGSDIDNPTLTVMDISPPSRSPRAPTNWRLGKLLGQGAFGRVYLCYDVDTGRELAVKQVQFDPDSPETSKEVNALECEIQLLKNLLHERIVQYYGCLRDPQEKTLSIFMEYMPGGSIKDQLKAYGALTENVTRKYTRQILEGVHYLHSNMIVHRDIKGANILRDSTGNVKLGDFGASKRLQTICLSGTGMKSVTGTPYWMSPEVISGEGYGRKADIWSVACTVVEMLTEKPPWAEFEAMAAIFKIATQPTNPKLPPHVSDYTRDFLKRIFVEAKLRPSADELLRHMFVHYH

Aurora kinase A = molecular target: T5, Aurora kinase A (Homo sapiens, UniProt O14965)
T5 sequence (O14965 whole entry): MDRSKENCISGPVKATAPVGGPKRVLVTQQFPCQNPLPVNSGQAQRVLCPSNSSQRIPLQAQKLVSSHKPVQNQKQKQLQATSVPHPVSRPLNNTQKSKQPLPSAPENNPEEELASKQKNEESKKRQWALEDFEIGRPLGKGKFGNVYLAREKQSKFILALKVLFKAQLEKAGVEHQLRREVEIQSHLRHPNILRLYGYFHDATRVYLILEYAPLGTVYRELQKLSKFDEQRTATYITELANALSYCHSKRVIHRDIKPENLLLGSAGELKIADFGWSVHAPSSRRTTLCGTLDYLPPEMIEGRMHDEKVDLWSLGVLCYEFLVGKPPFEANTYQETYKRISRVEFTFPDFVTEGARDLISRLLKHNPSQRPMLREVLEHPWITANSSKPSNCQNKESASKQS

Structure (SMILES) | Kd [1] | Kd [2] | Kd [3] | Kd [4] | Kd (Aurora kinase A)
Nc1ncnc2c1c(-c1cccc(OCc3ccccc3)c1)cn2[C@H]1C[C@@H](CN2CCC2)C1 [AEW-541] | > 30 µM (inactive) | > 30 µM (inactive) | > 30 µM (inactive) | > 30 µM (inactive) | > 30 µM (inactive)
Cc1nc(NC(=O)N2CCC[C@H]2C(N)=O)sc1-c1ccnc(C(C)(C)C(F)(F)F)c1 [ALPELISIB] | > 30 µM (inactive) | > 30 µM (inactive) | > 30 µM (inactive) | > 30 µM (inactive) | > 30 µM (inactive)
C=CC(=O)Nc1cc2c(Nc3ccc(F)c(Cl)c3)ncnc2cc1C#CC(C)(C)N1CCN(C)CC1 [AV-412 FREE BASE] | > 30 µM (inactive) | > 30 µM (inactive) | > 30 µM (inactive) | > 30 µM (inactive) | > 30 µM (inactive)
COc1cc([C@@H]2c3cc4c(cc3[C@H](O)[C@H]3COC(=O)[C@@H]23)OCO4)cc(OC)c1OC [AXL-1717] | > 30 µM (inactive) | > 30 µM (inactive) | > 30 µM (inactive) | > 30 µM (inactive) | > 30 µM (inactive)
Cc1cc(C(=O)NOCCO)c(Nc2ccc(I)cc2F)n(C)c1=O [AZD-8330] | > 30 µM (inactive) | > 30 µM (inactive) | > 30 µM (inactive) | > 30 µM (inactive) | > 30 µM (inactive)
Cn1cnc2c(F)c(Nc3ccc(Br)cc3F)c(C(=O)NOCCO)cc21 [BINIMETINIB] | > 30 µM (inactive) | > 30 µM (inactive) | > 30 µM (inactive) | > 30 µM (inactive) | > 30 µM (inactive)
CCn1c(C(=O)N(C2CC2)C2CC2)cc2c3c(ncn3C)c(Nc3cc(C)n(C)n3)nc21 [BMS-911543] | > 30 µM (inactive) | > 30 µM (inactive) | > 30 µM (inactive) | > 30 µM (inactive) | > 30 µM (inactive)
COc1cc2ncnc(Oc3cccc(NC(=O)Nc4cc(C(C)(C)C(F)(F)F)on4)c3)c2cc1OC [CEP-32496] | > 30 µM (inactive) | > 30 µM (inactive) | > 30 µM (inactive) | > 30 µM (inactive) | > 30 µM (inactive)
Cc1cc(Nc2ncc(Cl)c(Nc3ccccc3S(=O)(=O)C(C)C)n2)c(OC(C)C)cc1C1CCNCC1 [CERITINIB] | > 30 µM (inactive) | > 30 µM (inactive) | > 30 µM (inactive) | > 30 µM (inactive) | > 30 µM (inactive)
COc1c(OCCCN2CCOCC2)ccc2c1N=C(NC(=O)c1cnc(N)nc1)N1CCN=C21 [COPANLISIB] | > 30 µM (inactive) | > 30 µM (inactive) | > 30 µM (inactive) | > 30 µM (inactive) | > 30 µM (inactive)
COCC(=O)NC/C=C/c1ccc2ncnc(Nc3ccc(Oc4ccc(C)nc4)c(C)c3)c2c1 [CP-724714] | > 30 µM (inactive) | > 30 µM (inactive) | > 30 µM (inactive) | > 30 µM (inactive) | > 30 µM (inactive)
CCS(=O)(=O)N1CCN(c2ccc(Nc3ncc(C(N)=O)c(NC4CC4)n3)cc2)CC1 [Cerdulatinib Hydrochloride] | > 30 µM (inactive) | 0.062 µM (active) | > 30 µM (inactive) | 0.747 µM (active) | > 30 µM (inactive)
Cc1nc2cc(-n3ncc(C(=O)c4cc5ccccc5[nH]4)c3N)ccc2[nH]1 [FGFR INHIBITOR DEBIO 1347] | > 30 µM (inactive) | > 30 µM (inactive) | > 30 µM (inactive) | > 30 µM (inactive) | > 30 µM (inactive)
O=C(Nc1nc2cccc(-c3ccc(CN4CCS(=O)(=O)CC4)cc3)n2n1)C1CC1 [FILGOTINIB] | > 30 µM (inactive) | > 30 µM (inactive) | > 30 µM (inactive) | > 30 µM (inactive) | > 30 µM (inactive)
Cc1cccc(-c2nn3c(c2-c2ccnc4ccc(C(N)=O)cc24)CCC3)n1 [GALUNISERTIB] | > 30 µM (inactive) | > 30 µM (inactive) | > 30 µM (inactive) | > 30 µM (inactive) | > 30 µM (inactive)
COc1ccc(S(=O)(=O)N(C(C)=O)c2ccccc2/C=C/c2cc[n+]([O-])cc2)cc1 [HMN-214] | > 30 µM (inactive) | > 30 µM (inactive) | > 30 µM (inactive) | > 30 µM (inactive) | > 30 µM (inactive)
CNC(=O)c1cccc2cc(Oc3ccnc4cc(OCC5(N)CC5)c(OC)cc34)ccc12 [LUCITANIB] | > 30 µM (inactive) | > 30 µM (inactive) | > 30 µM (inactive) | > 30 µM (inactive) | > 30 µM (inactive)
CNC(=O)c1nn(C)c2c1C(C)(C)Cc1cnc(Nc3ccc(N4CCN(C)CC4)cc3)nc1-2 [MILCICLIB] | > 30 µM (inactive) | > 30 µM (inactive) | > 30 µM (inactive) | > 30 µM (inactive) | > 30 µM (inactive)
NC1(c2ccc(-c3nc4ccn5c(=O)[nH]nc5c4cc3-c3ccccc3)cc2)CCC1 [MK-2206] | > 30 µM (inactive) | > 30 µM (inactive) | > 30 µM (inactive) | > 30 µM (inactive) | > 30 µM (inactive)
CN(C[C@@H]1COCCO1)S(=O)(=O)Nc1ccc2ccc3ncc(-c4cnn(C)c4)cc3c(=O)c2c1 [MK-2461] | > 30 µM (inactive) | > 30 µM (inactive) | > 30 µM (inactive) | > 30 µM (inactive) | > 30 µM (inactive)
Cn1cc(-c2cnc3ccc4ccc(CS(=O)(=O)NCc5ccccn5)cc4c(=O)c3c2)cn1 [MK-8033] | > 30 µM (inactive) | > 30 µM (inactive) | > 30 µM (inactive) | > 30 µM (inactive) | > 30 µM (inactive)
